# Data taken from patent US12285470B2, “Trim proteins and galectins cooperate and codirect autophagy and are useful in the treatment of autophagy related diseases” (UNM RAINFOREST INNOVATIONS, priority 2016, dated 2025).
# Where a SMILES comes first, the peptide text is derived from it. The star is where a group is joined. βNA = c1ccc2cc(N*)ccc2c1
# Assays:
# HeLa cells [1] = details: Petersen et al., 2013; cited from earlier work
# HeLa cells [2] = assay: Confocal microscopy of TRIM16 puncta in HeLa cells; format: cell-based
# Protocol: (§1) High content microscopy with automated image acquisition and quantification was carried out using a Cellomics HCS scanner and iDEV software (Thermo) in 96-well plates (Mandell et al., 2014). Immunofluorescence confocal microscopy was performed using an LSM510 confocal microscope and Zeiss software package. For quantification of puncta or total cell fluorescence, image J was used as described previously (Chauhan et al., 2015). For quantifying cell death, HeLa and derivative cells treated with 15 μM siramesine for 12 h were incubated with 7AAD (BD Pharmingen™; cat #559925) for 30 min and fluorescence of 7AAD bound to nuclear DNA measured in a flow cytometer.
# HeLa cells [3] = assay: Cell death by 7AAD nuclear staining, flow cytometry; format: cell-based
# Protocol: as §1
# [4] = tested on: HEK293 cells with YFP-Gal fusion; assay: YFP-Galectin puncta formation by high content microscopy; format: cell-based; details: 100 μM, 1h
# Excerpt: Data, means±SD; n=1000 cells per condition; n>3; ANOVA, Tukey's t test vs. control, *p<0.05.**p<0.01.
# a) Screen set up. […] Given that the endomembrane damage protection is a highly conserved process, we will use stable (Flp-In) YFP-Gal8 and YFP-Gal9 293A cells. […] In THP-1 cells, we will use endogenous Gal8 and Gal9 responses to lysosomal damage control. […] Quantification of target 1 (Gal8) and target II (Gal9) intracellular objects (Gal8 puncta) will be done by automated HC microscopy on our Cellomics Array Scanner system and processed, as we have recently published^99. We will use in primary tests parameters of 20 fields per well and >500 valid primary objects per well, corresponding to parameters that follow Z values of >0.5^155 in positive controls (100 μM GPN; 2 mM LLOMe) vs. negative controls (DMSO). For secondary tests of positive hits, 49 field/plate will be examined.
# [5] = tested on: primary murine bone marrow-derived macrophages (BMMs); assay: Oxygen consumption rate (Seahorse) in bone marrow-derived macrophages; format: cell-based
# Mtb Erdman = tested on: Mtb Erdman; design: species or system C57BL/6J mice; details: mouse, in vivo
# [6] = Blood levels of rapamycin by mass spectrometry in mice on eRAPA chow; details: 42 ppm eRAPA dose in chow; n=8 animals, mean±SD (±35 ng/ml)
# THP-1 macrophages [7] = assay: Galectin puncta formation in THP-1 macrophages; format: cell-based; details: 250 μM, 2h
# AMPK = AMPK activation response in THP-1 macrophages; format: cell-based; details: cells KD for Gal9
# THP-1 macrophages [8] = assay: Lysosomal damage readouts (cathepsin B activity, LysoTracker Red) in THP-1 macrophages; format: cell-based
# THP-1 cells = assay: Confocal microscopy of TRIM16 puncta in THP-1 cells; format: cell-based; details: 0.5 mM
# Protocol: as §1
# TFEB = assay: High content analysis of TFEB nuclear translocation; format: cell-based; details: HeLa cells, lysosomal damage
# Protocol: as §1
# HeLa cells [9] = assay: High content microscopy of LC3 and ubiquitin puncta after lysosomal damage; format: cell-based
# Protocol: as §1
# mTOR = assay: S6K1 phosphorylation (mTOR target) immunoblot in HeLa cells; format: cell-based; details: 1 mM, 2h
# Protocol: (§2) Immunoblots and co-IPs assays for endogenous or exogenously expressed proteins were carried out as described previously (Chauhan et al., 2015). For immunoprecipitation experiments with exogenously expressed proteins, 293T cells were transfected with 5 μg of expression constructs by calcium phosphate for 24 h and lysed on ice using NP-40 buffer (Invitrogen) containing protease inhibitor cocktail (Roche, cat #11697498001) and […] (Sigma, cat #93482). Lysates were mixed with antibody (2-3 μg) incubated at 4° C. for 2 h followed by incubation with protein G Dynabeads (Life technologies) for 2 h at 4° C. Beads were washed four times with PBS and then boiled with SDS-PAGE buffer for analysis of interacting protein by Immunoblotting. Input lanes contained 10% of material unless otherwise indicated.
# DEPTOR = DEPTOR levels in extracts of HeLa cells; format: cell-based; details: 1 mM, 2h
# Protocol: as §2
structure (smiles),measurement,setting,value
Fc1ccc(-n2cc(CCCCN3CCC4(CC3)OCc3ccccc34)c3ccccc32)cc1 [siramesine],cell death in HeLa cells (literature),HeLa cells [1],can promote cell death
same,TRIM16 puncta formation in HeLa cells,HeLa cells [2],formation of TRIM16 puncta that colocalized with LC3B
same,sensitivity to cell death in TRIM16KO HeLa cells vs HeLa,"HeLa cells [3]; 15 μM, 12 h, 7AAD",increased sensitivity to cell death
"NCC(=O)N[C@@H](Cc1ccccc1)C(=O)Nc1ccc2ccccc2c1 [GPN, Gly-Phe-naphthylamide] (H-Gly-Phe-βNA)",cytoplasmic Galectin puncta formation response,[4],"Gal3, Gal8 and Gal9 give the most robust response"
same,oxygen consumption rate (OCR),[5],alters
Nc1c(Br)cc(Br)cc1CN[C@H]1CC[C@H](O)CC1 [ambroxol],effect on Mtb lung CFU in combination with rifampicin,Mtb Erdman,synergism
CO[C@H]1C[C@@H]2CC[C@@H](C)[C@@](O)(O2)C(=O)C(=O)N2CCCC[C@H]2C(=O)O[C@H]([C@H](C)C[C@@H]2CC[C@@H](O)[C@H](OC)C2)CC(=O)[C@H](C)/C=C(\C)[C@@H](O)[C@@H](OC)C(=O)[C@H](C)C[C@H](C)/C=C/C=C/C=C/1C [rapamycin],blood levels of rapamycin,[6],205 ng/mL
CN(C)C(=N)N=C(N)N [metformin],Galectin puncta formation,THP-1 macrophages [7],"causes Gal3, Gal8, and Gal9 puncta formation"
same,AMPK activation,AMPK,Gal9-dependent AMPK activation
same,LysoTracker Red stain,THP-1 macrophages [8]; THP-1 macrophages,Reduction
same,lysosomal cathepsin B activity,THP-1 macrophages [8]; THP-1 macrophages,loss of activity
same,lysosomal damage,THP-1 macrophages [8]; preliminary studies,causes lysosomal damage
"COC(=O)[C@H](CC(C)C)NC(=O)[C@@H](N)CC(C)C [LLOMe, Leu-Leu-O-Me]",TRIM16 puncta formation in leukocytes,THP-1 cells,morphologically prominent
same,TFEB translocation to the nucleus,TFEB,translocated to the nucleus
same,LC3 response (endogenous LC3B puncta),HeLa cells [9],consistent LC3 dose response
same,abundance of ubiquitin puncta,HeLa cells [9]; high content microscopy,Dose-dependent increase
same,mTOR activity (S6K1 phosphorylation),mTOR,inhibited
same,cellular DEPTOR level,DEPTOR,increased
same,lysosomal cell death,HeLa cells [3]; HeLa cells,cannot cause significant lysosomal cell death
